Measured values: patent US20100267712A1, “ISOINDOLINE COMPOUNDS FOR THE TREATMENT OF SPINAL MUSCULAR ATROPHY AND OTHER USES” (The United States of America, as represented by the …, priority 2007, published 2010)

Test system: SMN2-linked luciferase-reporter gene construct
Assay: SMN Splice Reporter Assay (SMN2-linked luciferase reporter)
Format: cell-based
Details: cervical carcinoma cell lines, SMN2 splice luciferase reporter
Source text: As previously discussed, SMN1 is the gene deleted in SMA patients; the SMN2 gene remains intact in both SMA and normal patients. Therefore, SMN2 provides a potential means of increasing SMN production in SMA patients and is, thus, a target for developing SMA treatments. SMN2 is identical to SMN1 with the exception of a single base pair change that results in reduced expression of the gene. The reduction is based on the creation of an alternatively spliced RNA that produces an unstable protein carrying a deletion of exon 7. Both full length SMN and exon 7 deleted SMN are produced by the SMN2 gene via alternative RNA splicing, but the major product is the unstable deleted form.
Cervical carcinoma cell lines were transformed with a SMN2-linked luciferase-reporter gene construct. The reporter is designed to detect shifts in the alternative splicing of SMN2 sequences. In particular, the reporter is constructed as a fusion of the alternatively spliced sequences of the SMN2 gene and the luciferase gene. Luciferase sequences are in the correct translational reading frame only when the SMN2 sequences are spliced according to the normal SMN1 mechanism (e.g., splicing to include exon 7), which allows for translation of the stable SMN protein. Compounds were tested in the assay by administering the compound to the cell line and detecting an increase in the luciferase activity. The assay is described in greater detail in Zhang et al., Gene Ther., 8: 1532-8 (2001). Compounds were administered as described in Lunn et al, Chem. & Biol, 11: 1489-1493 (2004).
The results are reported as a fold-increase over a baseline reading of transformed cells without any test compound. The EC50 value also is reported in Table 1 for some exemplary compounds of the invention.

EC50 [nM] | SMILES
2040 | COc1cc2c(cc1OC)C(=O)N(c1ccc3ncccc3c1)C2 [Example 120954]
96 | Cn1ccc2ccc(N3Cc4ccc(N5CCCCC5)cc4C3=O)cc21 [Example 124650]
439 | CCCn1ccc2cc(N3Cc4ccc(OC)cc4C3=O)ccc21 [Example 119517]
152 | Cn1ccc2ccc(N3Cc4cccc(N)c4C3=O)cc21 [Example 120429]
59 | COc1ccc2c(c1)C(=O)N(c1ccc3scnc3c1)C2 [Example 120785]
6 | O=C1c2cc3c(cc2CN1c1ccc2ccoc2c1)OCCO3 [Example 118903]
1040 | CC(=O)Nc1ccc2c(c1)CN(c1ccc3ccn(C)c3c1)C2=O [Example 121506]
491 | COc1ccc2c(c1)C(=O)N(c1ccc(C(C)C)nc1)C2 [Example 119655]
2450 | O=C1c2ccccc2CN1c1ccc2c(c1)OCO2 [Example 116238]
359 | Cc1cc2cc(N3Cc4ccc(CC(C)C)cc4C3=O)ccc2n1C [Example 123439]
67 | O=C1c2ccccc2CN1c1ccc2c(c1)CCC2 [Example 116070]
161 | Cc1cccc2c1C(=O)N(c1ccc3c(ccn3C)c1)C2 [Example 120278]
14 | COc1ccc2c(c1)C(=O)N(c1ccc3sc(C)nc3c1)C2 [Example 120593]
57 | CCc1ccc2c(c1)C(=O)N(c1ccc3sccc3c1)C2 [Example 122684]
3710 | COc1cccc2c1CN(c1ccc3sccc3c1)C2=O [Example 121509]
453 | Cn1ccc2ccc(N3Cc4cc(Br)ccc4C3=O)cc21 [Example 120118]
9790 | COc1cc2c(cc1OC)C(=O)N(c1ccc3c(ccn3C)c1)C2 [Example 120789]
728 | Cn1ccc2cc(N3Cc4ccc(-c5cccnc5)cc4C3=O)ccc21 [Example 122042]
277 | CC(C)C(=O)Nc1ccc2c(c1)C(=O)N(c1ccc3c(ccn3C)c1)C2 [Example 124864]
708 | Cc1ccc(N2Cc3cc4c(cc3C2=O)OCCO4)cn1 [Example 118554]
317 | Cn1ccc2ccc(N3Cc4cc(Cl)ccc4C3=O)cc21 [Example 120779]
540 | COc1cccc2c1C(=O)N(c1ccc3c(ccn3C)c1)C2 [Example 120125]
902 | COc1ccc2c(c1)C(=O)N(c1ccc3nccc(Cl)c3c1)C2 [Example 123013]
220 | Cn1ccc2cc(N3Cc4ccc(OC(F)(F)Br)cc4C3=O)ccc21 [Example 122431]
160 | COc1ccc2c(c1)C(=O)N(c1ccc3c(c1)c(Br)cn3C)C2 [Example 122044]
38 | CN(C)c1ccc2c(c1)C(=O)N(c1ccc3ccsc3c1)C2 [Example 122038]

EC50 [nM] | SMILES
22 | CC(C)n1ccc2cc(N3Cc4ccc(N(C)C)cc4C3=O)ccc21 [Example 125271]
556 | Cn1ccc2cc(N3Cc4ccc(S(C)(=O)=O)cc4C3=O)ccc21 [Example 121790]
1250 | COc1cccc2c1CN(c1ccc3ncccc3c1)C2=O [Example 120956]
15 | O=C1c2cc3c(cc2CN1c1ccc2ncccc2c1)OCCO3 [Example 120787]
323 | CCCc1ccc2c(c1)C(=O)N(c1ccc3c(c1)cc(C)n3C)C2 [Example 123014]
147 | COc1ccc2c(c1)C(=O)N(c1ccc3c(OC)ccnc3c1)C2 [Example 123712]
238 | Cn1ccc2ccc(N3Cc4cccc(Cl)c4C3=O)cc21 [Example 120792]
26 | COc1ccc2c(c1)C(=O)N(c1ccc3c(C)ccnc3c1)C2 [Example 124038]
159 | Cn1ccc2cc(N3Cc4ccc(O)cc4C3=O)ccc21 [Example 121510]
984 | Cn1ccc2ccc(N3Cc4ccc(Cl)cc4C3=O)cc21 [Example 120950]
166 | COc1ccc2c(c1)C(=O)N(c1ccc(C)cn1)C2 [Example 118553]
137 | O=C1c2cc3c(cc2CN1c1ccc(Br)cn1)OCCO3 [Example 118736]
139 | O=C1c2cc(O)ccc2CN1c1ccc2ccsc2c1 [Example 122556]
54 | Cc1ccc2c(c1)CN(c1ccc3ccn(C)c3c1)C2=O [Example 120434]
152 | CCc1ccc2c(c1)C(=O)N(c1ccc3ccn(C)c3c1)C2 [Example 124169]
397 | Cn1ccc2ccc(N3Cc4cccc(Br)c4C3=O)cc21 [Example 120281]
842 | COc1cccc2c1CN(c1ccc3c(ccn3C)c1)C2=O [Example 119865]
519 | COc1ccc2c(c1)C(=O)N(c1ccc3c(c1)OC(F)(F)O3)C2 [Example 116565]
422 | Cc1ccc2c(c1)C(=O)N(c1ccc3ccn(C)c3c1)C2 [Example 121504]
455 | Cn1ccc2cc(N3Cc4cccc(Br)c4C3=O)ccc21 [Example 120280]
128 | COc1ccc2c(c1)C(=O)N(c1ccc3sc(C)c(C)c3c1)C2 [Example 123590]
1030 | Cn1ccc2cc(N3Cc4c(Br)cccc4C3=O)ccc21 [Example 120289]
135 | Cn1ccc2ccc(N3Cc4ccc(OC5CCCC5)cc4C3=O)cc21 [Example 124860]
509 | Cn1ccc2ccc(N3Cc4ccc(OC(F)F)cc4C3=O)cc21 [Example 120591]
679 | Cn1ccc2cc(N3Cc4c(Cl)cccc4C3=O)ccc21 [Example 120786]
20 | COc1ccc2c(c1)C(=O)N(c1ccc3nc(OC)ccc3c1)C2 [Example 123333]

Same assay, conditions: fold-increase of luciferase over baseline reading of transformed cells without any test compound

SMILES | Fold Increase
COc1cc2c(cc1OC)C(=O)N(c1ccc3ncccc3c1)C2 [Example 120954] | 1.356
Cn1ccc2ccc(N3Cc4ccc(N5CCCCC5)cc4C3=O)cc21 [Example 124650] | 1.684
CCCn1ccc2cc(N3Cc4ccc(OC)cc4C3=O)ccc21 [Example 119517] | 1.59
Cn1ccc2ccc(N3Cc4cccc(N)c4C3=O)cc21 [Example 120429] | 1.745
CC(C)Oc1ccc2c(c1)C(=O)N(c1ccc3sccc3c1)C2 [Example 122553] | 1.082
COc1ccc2c(c1)C(=O)N(c1ccc3c(c1)cc(C(=O)N1CCCC1)n3C)C2 [Example 123935] | 1.124
COc1ccc2c(c1)C(=O)N(c1ccc3scnc3c1)C2 [Example 120785] | 1.353
COc1ccc2c(c1)C(=O)N(c1ccc3nccc(N(C)C)c3c1)C2 [Example 122820] | 1.066
O=C1c2cc3c(cc2CN1c1ccc2ccoc2c1)OCCO3 [Example 118903] | 1.458
CC(=O)Nc1ccc2c(c1)CN(c1ccc3ccn(C)c3c1)C2=O [Example 121506] | 1.488
COc1ccc2c(c1)C(=O)N(c1ccc(C(C)C)nc1)C2 [Example 119655] | 1.372
O=C1c2ccccc2CN1c1ccc2c(c1)OCO2 [Example 116238] | 1.235
CC(C)C(=O)Nc1ccc2c(c1)C(=O)N(c1ccc3ccn(C)c3c1)C2 [Example 124776] | 2.069
Cc1cc2cc(N3Cc4ccc(CC(C)C)cc4C3=O)ccc2n1C [Example 123439] | 1.357
O=C1c2ccccc2CN1c1ccc2c(c1)CCC2 [Example 116070] | 1.445
Cc1cccc2c1C(=O)N(c1ccc3c(ccn3C)c1)C2 [Example 120278] | 1.502
COc1ccc2c(c1)C(=O)N(c1ccc3sc(C)nc3c1)C2 [Example 120593] | 1.322
CCc1ccc2c(c1)C(=O)N(c1ccc3sccc3c1)C2 [Example 122684] | 1.665
COc1cccc2c1CN(c1ccc3sccc3c1)C2=O [Example 121509] | 1.564
Cn1ccc2ccc(N3Cc4cc(Br)ccc4C3=O)cc21 [Example 120118] | 1.893
COc1cc2c(cc1OC)C(=O)N(c1ccc3c(ccn3C)c1)C2 [Example 120789] | 1.427
Cn1ccc2cc(N3Cc4ccc(-c5cccnc5)cc4C3=O)ccc21 [Example 122042] | 1.422

SMILES | Fold Increase
CC(C)C(=O)Nc1ccc2c(c1)C(=O)N(c1ccc3c(ccn3C)c1)C2 [Example 124864] | 1.519
CN1CCN(c2ccc3c(c2)C(=O)N(c2ccc4c(ccn4C)c2)C3)CC1 [Example 123588] | 1.183
Cc1ccc(N2Cc3cc4c(cc3C2=O)OCCO4)cn1 [Example 118554] | 1.364
CCCCOc1ccc2c(c1)C(=O)N(c1ccc3sccc3c1)C2 [Example 122552] | 1.202
Cn1ccc2ccc(N3Cc4cc(Cl)ccc4C3=O)cc21 [Example 120779] | 1.704
COc1cccc2c1C(=O)N(c1ccc3c(ccn3C)c1)C2 [Example 120125] | 1.332
COc1ccc2c(c1)C(=O)N(c1ccc3nccc(Cl)c3c1)C2 [Example 123013] | 1.413
Cn1ccc2cc(N3Cc4ccc(OC(F)(F)Br)cc4C3=O)ccc21 [Example 122431] | 1.552
COc1ccc2c(c1)C(=O)N(c1ccc3c(c1)c(Br)cn3C)C2 [Example 122044] | 1.383
CN(C)c1ccc2c(c1)C(=O)N(c1ccc3ccsc3c1)C2 [Example 122038] | 1.592
CC(C)n1ccc2cc(N3Cc4ccc(N(C)C)cc4C3=O)ccc21 [Example 125271] | 1.285
COc1ccc(-c2ccc3c(c2)C(=O)N(c2ccc4ccn(C)c4c2)C3)cc1 [Example 122315] | 1.091
CCCOc1ccc2c(c1)C(=O)N(c1ccc3cc(C)n(C)c3c1)C2 [Example 124982] | 1.221
CCOC1CS(=O)(=O)c2cc(N3Cc4ccc(OC)cc4C3=O)ccc21 (stereo not shown) [Example 124031] | 1.106
Cn1ccc2cc(N3Cc4ccc(S(C)(=O)=O)cc4C3=O)ccc21 [Example 121790] | 1.336
COc1cccc2c1CN(c1ccc3ncccc3c1)C2=O [Example 120956] | 1.329
O=C1c2cc3c(cc2CN1c1ccc2ncccc2c1)OCCO3 [Example 120787] | 1.807
CCCc1ccc2c(c1)C(=O)N(c1ccc3c(c1)cc(C)n3C)C2 [Example 123014] | 1.407
COc1ccc2c(c1)C(=O)N(c1ccc3c(OC)ccnc3c1)C2 [Example 123712] | 1.38
Cn1ccc2ccc(N3Cc4cccc(Cl)c4C3=O)cc21 [Example 120792] | 1.642
COc1ccc2c(c1)C(=O)N(c1ccc3c(c1)cc(C(C)C)n3C)C2 [Example 124773] | 1.255
COc1ccc2c(c1)C(=O)N(c1ccc3c(C)ccnc3c1)C2 [Example 124038] | 1.509

SMILES | Fold Increase
Cn1ccc2cc(N3Cc4ccc(O)cc4C3=O)ccc21 [Example 121510] | 1.542
Cn1ccc2ccc(N3Cc4ccc(Cl)cc4C3=O)cc21 [Example 120950] | 1.482
COc1ccc2c(c1)C(=O)N(c1ccc(C)cn1)C2 [Example 118553] | 1.308
O=C1c2cc3c(cc2CN1c1ccc(Br)cn1)OCCO3 [Example 118736] | 1.413
O=C1c2cc(O)ccc2CN1c1ccc2ccsc2c1 [Example 122556] | 1.671
Cc1ccc2c(c1)CN(c1ccc3ccn(C)c3c1)C2=O [Example 120434] | 1.708
CCc1ccc2c(c1)C(=O)N(c1ccc3ccn(C)c3c1)C2 [Example 124169] | 1.673
Cn1ccc2ccc(N3Cc4cccc(Br)c4C3=O)cc21 [Example 120281] | 1.788
COc1cccc2c1CN(c1ccc3c(ccn3C)c1)C2=O [Example 119865] | 1.444
COc1ccc2c(c1)C(=O)N(c1ccc3c(c1)OC(F)(F)O3)C2 [Example 116565] | 1.3
Cc1ccc2c(c1)C(=O)N(c1ccc3ccn(C)c3c1)C2 [Example 121504] | 1.742
COc1ccc2c(c1)C(=O)N(c1ccc3ocnc3c1)C2 [Example 120957] | 1.254
Cn1ccc2cc(N3Cc4cccc(Br)c4C3=O)ccc21 [Example 120280] | 1.527
COc1ccc2c(c1)C(=O)N(c1ccc3sc(C)c(C)c3c1)C2 [Example 123590] | 1.405
Cn1ccc2cc(N3Cc4c(Br)cccc4C3=O)ccc21 [Example 120289] | 1.39
Cn1ccc2ccc(N3Cc4ccc(OC5CCCC5)cc4C3=O)cc21 [Example 124860] | 1.582
Cn1ccc2ccc(N3Cc4ccc(OC(F)F)cc4C3=O)cc21 [Example 120591] | 1.709
COc1ccc(-c2ccc3c(c2)C(=O)N(c2ccc4c(ccn4C)c2)C3)cc1 [Example 122040] | 1.148
Cn1ccc2cc(N3Cc4c(N)cccc4C3=O)ccc21 [Example 120120] | 1.094
Cn1ccc2cc(N3Cc4c(Cl)cccc4C3=O)ccc21 [Example 120786] | 1.376
COc1ccc2c(c1)C(=O)N(c1ccc3nc(OC)ccc3c1)C2 [Example 123333] | 1.376
COc1ccc2c(c1)C(=O)N(c1ccc3ccc(N(C)C)nc3c1)C2 [Example 123937] | 1.202
